Assay results published in patent publication US20070049627A1, “Treating vulvodynia using prodrugs of GABA analogs” (priority 2005, published 2007).
Like-named read-outs stand apart in the source and are kept apart here.

How the values were obtained:
[1] = Randomized, crossover, fed/fasted single-dose pharmacokinetic study of oral sustained release tablets of compound (3); type: in vivo, human; conditions: for AUC of compound (3) in blood as percent of corresponding AUC of gabapentin in blood / maximum intact compound (3) concentration as percent of corresponding peak gabapentin concentration: sustained release tablets oral
Description: A randomized, crossover, fed/fasted single-dose study of the safety, tolerability, and pharmacokinetics of oral administration of 1-{[(α-isobutanoyloxyethoxy)carbonyl]aminomethyl}-1-cyclohexane acetic acid (3) in healthy adult subjects was conducted. The oral sustained release dosage form of Example 6 was used in this study. The study was designed to evaluate the performance of this formulation in humans in comparison with the commercial gabapentin capsule formulation (Neurontin®, Pfizer). Twelve healthy adult volunteers (7 males and 5 females) participated in the study. Mean body weight was 75.6 kg. All subjects received two different treatments in a random order with a one-week washout between treatments. The two treatments were: (A) a single oral dose of Example 1 tablets (2×600 mg) after an overnight fast; and (B) a single oral dose of Example 1 tablets (2×600 mg) after a high fat breakfast.
Blood and plasma samples were collected from all subjects prior to dosing, and at 0.5, 1, 1.5, 2, 3, 4, 6, 8, 12, 18, 24, and 36 hours after dosing. Urine samples were collected from all subjects prior to dosing, and complete urine output was obtained at the 0-4 h, 4-8 h, 8-12 h, 12-18 h, 18-24 h, and 24-36 h intervals after dosing. Blood samples were quenched immediately with methanol and stored frozen at […]. Sample aliquots were prepared for analysis of gabapentin and compound (3) using sensitive and specific LC/MS/MS methods.

[2] = in vivo, po
[3] = Tmax of immediate release formulations following oral administration; conditions: in vivo
[4] = typical value used for comparison; cited from earlier work
[5] = tested on: patients suffering from chronic vulvar pain; conditions: increasing amounts of gabapentin over 12 weeks, cited from earlier work
[6] = sustained release tablets 2×600 mg oral, fasted subjects
[7] = sustained release tablets 2×600 mg oral, fed subjects

Compound	Cmax of gabapentin in blood ([1]; healthy adults, single oral dose sustained release tablets 2×600 mg, after a high fat breakfast) [µg/mL]	mean±SD Cmax for gabapentin in blood ([1]; healthy adults, single oral dose sustained release tablets 2×600 mg, fasted) [µg/mL]	AUC of gabapentin in blood ([1]; healthy adults, sustained release tablets 2×600 mg oral, after a high fat breakfast) [µg·h/mL]	mean±SD AUC for gabapentin in blood ([1]; healthy adults, sustained release tablets 2×600 mg oral, fasted) [µg·h/mL]	apparent terminal elimination half-life for gabapentin in blood [1, 6] [h]	gabapentin Tmax (time to peak blood levels) [1, 6] [h]	percent of the gabapentin dose recovered in urine [1, 6] [%]	apparent terminal elimination half-life for gabapentin in blood [1, 7] [h]	percent of the gabapentin dose recovered in urine [1, 7] [%]	increase of exposure to gabapentin in the presence of food compared to fasted subjects ([1]; sustained release tablets 2×600 mg oral, fed vs fasted) [%]	gabapentin Tmax (time to peak blood levels) ([1]; sustained release tablets 2×600 mg oral, in the presence of food) [h]	AUC of compound (3) in blood as percent of corresponding AUC of gabapentin in blood ([1]; fasted subjects) [%]	maximum intact compound (3) concentration as percent of corresponding peak gabapentin concentration ([1]; fasted subjects)	AUC of compound (3) in blood as percent of corresponding AUC of gabapentin in blood ([1]; fed subjects) [%]	maximum intact compound (3) concentration as percent of corresponding peak gabapentin concentration ([1]; fed subjects)	Tmax [2] [h]	Tmax [3] [h]	typical Tmax of immediate release gabapentin [4] [h]	patients with partial or complete relief of vulvar pain symptoms ([5]; amitriptyline non-responders)	patients reporting side effects such as headaches, nausea, vomiting, fatigue, and dizziness [5]
CC(OC(=O)NCC1(CC(=O)O)CCCCC1)OC(=O)C(C)C (stereo not drawn) [compound (3), 1-{[(α-Isobutanoyloxyethoxy)carbonyl]aminomethyl}-1-Cyclohexane Acetic Acid]	6.24 ± 1.55	4.21 ± 1.15	83.0 ± 21.8	54.5 ± 12.2	6.47 ± 0.77	5.08 ± 1.62	46.5±15.8	5.38 ± 0.80	73.7±7.2	52	8.40 ± 2.07	0.3	approximately 1.0%	< 0.1	approximately 0.3%	2 to 2.6				
NCC1(CC(=O)O)CCCCC1 [gabapentin]																	2.8 to 3.3	2 to 4	Eighty-two	over half the patients
